Measurements: the NIST ThermoML archive (doi:10.1021/acs.jced.9b00511)

Key:
[1] = Wilhelmy Plate
[2] = wn = mass fraction of the nth substance listed; conditions: Wilhelmy Plate

C[N+](C)(C)C.NCC(=O)[O-] [tetramethylammonium glycinate]
[1]
Conditions | surface tension liquid-gas [mN/m]
303.2 K | 56.2
308.2 K | 55.6
313.2 K | 55.1
318.2 K | 54.5
323.2 K | 53.9

CCCCn1cc[n+](C)c1.NCC(=O)[O-] [1-butyl-3-methylimidazolium glycinate] + O
surface tension liquid-gas [mN/m], [2]
Conditions | w1 = 0.025 | w1 = 0.05 | w1 = 0.075 | w1 = 0.1 | w1 = 0.15 | w1 = 0.2 | w1 = 0.4 | w1 = 0.6 | w1 = 0.8 | w1 = 1
303.2 K | 59.4 | 56.7 | 53.6 | 50.7 | 48.3 | 46.8 | 46 | 45.5 | 44.7 | 42.9
308.2 K | 56.8 | 54.3 | 51.6 | 49.2 | 47.3 | 45.9 | 45.3 | 44.9 | 44.1 | 42.6
313.2 K | 54.1 | 51.9 | 49.5 | 47.7 | 46.2 | 45 | 44.6 | 44.3 | 43.5 | 42.4
318.2 K | 51.5 | 49.6 | 47.8 | 46.4 | 45.1 | 44.2 | 43.8 | 43.4 | 42.8 | 42.1
323.2 K | 48.9 | 47.3 | 46.1 | 45.1 | 44 | 43.4 | 43 | 42.6 | 42.1 | 41.7

CCCCn1cc[n+](C)c1.NCCCC[C@H](N)C(=O)[O-] [1-butyl-3-methylimidazolium L-lysinate]
[1]
Conditions | surface tension liquid-gas [mN/m]
303.2 K | 45.9
308.2 K | 45.5
313.2 K | 45.1
318.2 K | 44.7
323.2 K | 44.2

CCCCn1cc[n+](C)c1.NCC(=O)[O-] [1-butyl-3-methylimidazolium glycinate]
[1]
Conditions | surface tension liquid-gas [mN/m]
303.2 K | 42.9
308.2 K | 42.6
313.2 K | 42.4
318.2 K | 42.1
323.2 K | 41.7

CC(O)CN(C)C (stereo not given) [1-(dimethylamino)-2-propanol] + O
surface tension liquid-gas [mN/m], [2]
Conditions | 303.2 K | 308.2 K | 313.2 K | 318.2 K | 323.2 K
w1 = 0.3 | 36.2 | 35.4 | 34.6 | 33.9 | 33.2
w1 = 0.4 | 33.5 | 32.7 | 32.1 | 31.5 | 30.9
w1 = 0.5 | 31.5 | 31 | 30.2 | 29.6 | 29.1
w1 = 1 | 24 | 23.2 | 22.6 | 22 | 21.3

CCCCn1cc[n+](C)c1.NCCCC[C@H](N)C(=O)[O-] [1-butyl-3-methylimidazolium L-lysinate] + O
surface tension liquid-gas [mN/m], [2]
Conditions | w1 = 0.025 | w1 = 0.05 | w1 = 0.075 | w1 = 0.1 | w1 = 0.15 | w1 = 0.2 | w1 = 0.4 | w1 = 0.6 | w1 = 0.8 | w1 = 1
303.2 K | 62.5 | 59.9 | 57.3 | 55.1 | 52.5 | 50.1 | 48.4 | 47.1 | 46.4 | 45.9
308.2 K | 59.8 | 57.7 | 55.2 | 53.3 | 50.9 | 49.1 | 47.6 | 46.4 | 45.9 | 45.5
313.2 K | 57.3 | 55.5 | 53.2 | 51.5 | 49.3 | 48.1 | 46.8 | 45.7 | 45.5 | 45.1
318.2 K | 54.3 | 52.5 | 50.8 | 49.4 | 47.7 | 46.8 | 45.9 | 45.3 | 45 | 44.7
323.2 K | 51.1 | 49.6 | 48.5 | 47.3 | 46.2 | 45.5 | 45.1 | 44.9 | 44.6 | 44.2

CC(O)CN(C)C (stereo not given) [1-(dimethylamino)-2-propanol]
[1]
Conditions | surface tension liquid-gas [mN/m]
303.2 K | 24
308.2 K | 23.2
313.2 K | 22.6
318.2 K | 22
323.2 K | 21.3

C[N+](C)(C)C.NCC(=O)[O-] [tetramethylammonium glycinate] + O
surface tension liquid-gas [mN/m], [2]
Conditions | w1 = 0.025 | w1 = 0.05 | w1 = 0.075 | w1 = 0.1 | w1 = 0.15 | w1 = 0.2 | w1 = 0.4 | w1 = 0.6 | w1 = 0.8 | w1 = 1
303.2 K | 67.8 | 65.4 | 64.1 | 62.7 | 61.6 | 60.2 | 58.5 | 57.6 | 56.9 | 56.2
308.2 K | 66.6 | 64.3 | 62.9 | 61.6 | 60.6 | 59.5 | 57.8 | 56.9 | 56.3 | 55.6
313.2 K | 65.4 | 63.3 | 62.2 | 60.6 | 59.7 | 58.8 | 57.1 | 56.2 | 55.8 | 55.1
318.2 K | 64.3 | 62.5 | 61 | 59.8 | 58.9 | 58.1 | 56.5 | 55.8 | 55.2 | 54.5
323.2 K | 62.3 | 61.1 | 60 | 58.7 | 57.9 | 57.1 | 56 | 55.4 | 54.6 | 53.9
